From patent US6207677A, “Piperidine derivatives having anxiolytic effect” (H. Lundbeck A/S, priority 1991, dated 2001)

How the values were obtained:
sigma receptors = assay: Inhibition of 3H-DTG binding to sigma receptors in rat brain in vitro; conditions: 2 nM 3H-DTG, rat brain without cerebellum, 25° C., 20 min
psychosis = conditions: Snyder, Largent 1989; cited from earlier work

Compound	IC50 (sigma receptors)	clinical effect in psychosis (psychosis)
O=S1(=O)CC(CCCCN2CCC3(CC2)OCc2ccccc23)c2ccccc21 (stereo not drawn) [Compound 33, 1'-[4-(2,3-Dihydro-benzo[b]thiophen-3-yl)-1-butyl]spiro[isobenzofuran-1(3H),4'-piperidine]-S,S-dioxide]	0.95 nM	–
c1ccc2c(c1)COC21CCN(CCCOc2csc3ccccc23)CC1 [Compound 34, 1'-[3-(Benzo[b]thiophen-3-yloxy)-1-propyl]spiro[isobenzofuran-1(3H),4'-piperidine]]	0.27 nM	–
c1ccc2c(c1)COC21CCN(CCOCc2csc3ccccc23)CC1 [Compound 35a, 1'-[2-(Benzo[b]thiophen-3-ylmethyloxy)-1-ethyl]spiro[isobenzofuran-1(3H),4'-piperidine]]	0.73 nM	–
Fc1ccc2occ(COCCN3CCC4(CC3)OCc3ccccc34)c2c1 [Compound 35b, 1'-[2-(5-Fluorobenzofuran-3-ylmethyloxy)-1-ethyl]spiro[isobenzofuran-1(3H),4'-piperidine]]	2.8 nM	–
CN(C)CCn1cc(CCCCN2CCC3(CC2)OCc2ccccc23)c2ccccc21 [Compound 36, 1'-[4-(1-(2-Dimethylamino-1-ethyl)-3-indolyl)-1-butyl]spiro[isobenzofuran-1(3H) ,4'-piperidine]]	4.5 nM	–
C[C@@H]1CN(CCCn2c3ccccc3c3ccccc32)C[C@H](C)N1 [rimcazole, reference compound]	–	clinically shows effects in the treatment of psychosis
